According to US20260337208A1, “HETEROCYCLIC DERIVATIVES AS JANUS KINASE INHIBITORS” (CHIESI FARMACEUTICI S.P.A., priority 2022, published 2026):
Blank lines part the entries; values can stand above or below the compound they belong to.

Legend:
TYK2 = TYK2 (Homo sapiens, UniProt P29597); assay: Biochemical potency on Tyk2, TR-FRET (LANCE Ultra kinase assay); details: ATP corresponding to Km; cell-free; read-out: TYK2 inhibitory activity (pIC50) (converted)
Procedure: (§1) The objective of this study was to assess the capability of compounds to inhibit all 4 JAK isoforms activity in a cell-free environment. Assay for JAK 1, JAK 2, JAK 3 and TYK2 were performed by Time-resolved fluorescence resonance energy transfer (TR-FRET) technology. It consists in the interaction of two labelled binding partners detected by the energy transfer from an excited donor to an acceptor dye and measurement of light emission by the acceptor dye. LANCE Ultra kinase assay was used. In presence of JAK 1, JAK 2, JAK 3 and TYK2 kinases and ATP (corresponding to Km), the ULight peptide substrate (LANCE Ulight-JAK-1 (Tyr1023) Peptide, Perkin Elmer, TRF0121) is phosphorylated. It is then captured by Eu-anti-phospho-substrate antibody (LANCE Eu-W1024 Anti-phosphotyrosine (PT66), Perkin Elmer, AD0069), which bring the Eu-chelate donor and ULight acceptor dyes into close proximity. Upon excitation at 320 nm, the Eu-chelate transfers its energy to the ULight dye, resulting in a fluorescent light emission at 665 nm.
(§2) Serial dilutions of compounds in pure DMSO are prepared from 10 mM DMSO stock solutions. Compounds were tested in 384-well plate for 11 consecutive 5-fold dilutions starting from 20 μM highest concentration (20 μM-[…]). 200 nL of compound were transferred from mother plate to test plate by using Mosquito (TTP labtech). Assay was performed in 384-well Perkin Elmer test plate in 20 μL assay volume (kinase reaction) and 40 μL total volume (stopping reagent and antibody detection reagents). In 10 μL of substrate solution (peptide+ATP) 30/50/20/10 nM of peptide and 20/0.7/0.2/12 μM of ATP were added for JAK 1, JAK 2, JAK 3 and TYK2 respectively. 10 μL of enzyme solution was added to kinase reaction at these concentrations: 0.15/0.083/0.025/0.144 ng/μL of JAK 1, JAK 2, JAK 3 and TYK2 respectively. After shaking and 1.5 h of incubation at r.t., 20 μL of Stop (10 μL EDTA) and Detection mixture (10 μL Europium-anti-phospho antibody, final: 0.5 nM) were added. Reading was performed after 1 h of incubation on a En Vision 2104 reader (Perkin Elmer).
(§3) Calculation of IC50 data, curves and QC analysis was performed by using Excel tool and GraphPadPrism software, v9. Briefly, individual concentration-effect curves are generated by plotting the logarithm of the tested concentration of tested compounds (X) vs. corresponding percent inhibition values (Y) using least squares (ordinary) fit. Best fit IC50 values are calculated using Log (inhibitor) vs. normalized response—Variable slope equation, where Y=100/(1+10^((LogIC50−X)*HillSlope)). QC criteria parameters (Z′, S:B, R2, HillSlope) were checked for every IC50 curve. Calculation of IC50 data, curves and QC analysis were made using Excel tools and GraphPadPrism software. QC criteria parameters: Z′≥0.5, Hill Slope range 0.5 to 5, S:B>2.

JAK2 = JAK2 (Homo sapiens, UniProt O60674); assay: Biochemical potency on JAK2, TR-FRET (LANCE Ultra kinase assay); details: ATP corresponding to Km; cell-free; read-out: JAK2 inhibitory activity (pIC50) (converted)
JAK2, sequence (O60674 whole entry): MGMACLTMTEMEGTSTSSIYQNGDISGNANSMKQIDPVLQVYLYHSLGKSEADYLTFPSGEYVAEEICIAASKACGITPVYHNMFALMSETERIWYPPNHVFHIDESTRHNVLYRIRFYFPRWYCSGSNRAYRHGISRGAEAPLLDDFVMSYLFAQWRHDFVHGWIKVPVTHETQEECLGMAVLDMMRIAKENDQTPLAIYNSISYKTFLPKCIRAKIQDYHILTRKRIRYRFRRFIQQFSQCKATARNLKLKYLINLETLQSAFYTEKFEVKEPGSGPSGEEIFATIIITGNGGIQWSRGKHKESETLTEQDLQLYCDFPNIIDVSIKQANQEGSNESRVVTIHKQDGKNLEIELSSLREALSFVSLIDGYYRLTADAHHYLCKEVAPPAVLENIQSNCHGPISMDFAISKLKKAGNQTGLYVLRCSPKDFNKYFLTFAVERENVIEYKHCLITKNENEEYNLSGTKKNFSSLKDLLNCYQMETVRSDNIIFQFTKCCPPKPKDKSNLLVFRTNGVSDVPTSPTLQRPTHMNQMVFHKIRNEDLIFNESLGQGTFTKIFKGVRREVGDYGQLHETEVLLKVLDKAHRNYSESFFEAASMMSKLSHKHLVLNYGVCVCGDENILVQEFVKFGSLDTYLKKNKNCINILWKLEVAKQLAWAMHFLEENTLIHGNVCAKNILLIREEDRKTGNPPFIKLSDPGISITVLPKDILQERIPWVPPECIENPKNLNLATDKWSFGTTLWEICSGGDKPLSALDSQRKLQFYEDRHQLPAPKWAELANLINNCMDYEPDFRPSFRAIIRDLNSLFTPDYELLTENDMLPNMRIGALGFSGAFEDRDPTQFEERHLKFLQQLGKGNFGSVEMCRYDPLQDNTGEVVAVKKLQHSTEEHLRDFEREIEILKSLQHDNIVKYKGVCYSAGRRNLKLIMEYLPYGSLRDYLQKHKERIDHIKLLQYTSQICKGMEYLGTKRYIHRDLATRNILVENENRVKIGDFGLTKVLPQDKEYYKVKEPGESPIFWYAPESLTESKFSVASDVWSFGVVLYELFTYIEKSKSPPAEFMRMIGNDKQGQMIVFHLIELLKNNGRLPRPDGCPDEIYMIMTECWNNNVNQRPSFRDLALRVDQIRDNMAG
Procedure: as §1, §2, §3

JAK1 = JAK1 (Homo sapiens, UniProt P23458); assay: Biochemical potency on JAK1, TR-FRET (LANCE Ultra kinase assay); details: ATP corresponding to Km; cell-free; read-out: JAK1 inhibitory activity (pIC50) (converted)
JAK1, sequence (P23458 whole entry): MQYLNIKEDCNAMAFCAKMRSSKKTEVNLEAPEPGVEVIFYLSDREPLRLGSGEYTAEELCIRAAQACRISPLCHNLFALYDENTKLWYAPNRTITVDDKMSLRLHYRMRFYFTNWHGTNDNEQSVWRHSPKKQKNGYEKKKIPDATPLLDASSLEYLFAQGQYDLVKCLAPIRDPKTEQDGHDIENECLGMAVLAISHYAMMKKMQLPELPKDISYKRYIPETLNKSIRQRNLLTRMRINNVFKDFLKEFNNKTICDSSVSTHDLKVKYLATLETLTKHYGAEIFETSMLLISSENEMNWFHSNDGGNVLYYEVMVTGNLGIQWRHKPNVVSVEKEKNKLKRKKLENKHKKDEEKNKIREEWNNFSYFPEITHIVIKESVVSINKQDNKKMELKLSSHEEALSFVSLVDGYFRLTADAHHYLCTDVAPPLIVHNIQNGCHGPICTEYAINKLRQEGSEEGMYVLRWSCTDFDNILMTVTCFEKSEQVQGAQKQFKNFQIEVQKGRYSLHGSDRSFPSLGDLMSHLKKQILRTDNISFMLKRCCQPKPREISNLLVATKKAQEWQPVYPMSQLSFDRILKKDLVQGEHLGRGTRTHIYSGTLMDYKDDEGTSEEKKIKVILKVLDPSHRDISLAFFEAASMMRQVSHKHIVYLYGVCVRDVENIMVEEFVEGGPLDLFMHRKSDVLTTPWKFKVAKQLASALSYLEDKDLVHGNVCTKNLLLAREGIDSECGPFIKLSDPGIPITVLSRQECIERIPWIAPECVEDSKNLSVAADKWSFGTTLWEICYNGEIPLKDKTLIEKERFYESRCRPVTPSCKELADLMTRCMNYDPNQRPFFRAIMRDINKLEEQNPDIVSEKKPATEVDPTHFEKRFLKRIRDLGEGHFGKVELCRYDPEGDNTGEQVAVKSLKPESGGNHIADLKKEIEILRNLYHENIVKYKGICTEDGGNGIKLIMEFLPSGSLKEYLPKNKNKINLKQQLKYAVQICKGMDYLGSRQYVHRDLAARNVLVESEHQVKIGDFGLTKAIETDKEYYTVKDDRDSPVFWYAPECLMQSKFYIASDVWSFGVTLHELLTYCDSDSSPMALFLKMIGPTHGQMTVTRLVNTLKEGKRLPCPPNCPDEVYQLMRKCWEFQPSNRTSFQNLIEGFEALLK
Procedure: as §1, §2, §3

[1] = test system: pSTAT6 in BEAS-2B human cell line; assay: Inhibition of IL-13 induced pSTAT6 in BEAS; type: cell-based; details: for IC50: Homo sapiens, BEAS-2B, 0.5 h, parent compound; for IC50 / pIC50 (BEAS) predicted acid metabolite: IL-13 trigger, 30 min; for Fold difference parent vs predicted acid metabolite: ratio=IC50 predicted acid metabolite/IC50 ester
Procedure: BEAS-2B human cell line was seeded (100.000 cells/well) and incubated for 48 h at 37° C., 5% CO2, 95% humidity. Compounds were added and incubated 30 min followed by IL-13 as trigger. After 30 min incubation, cells were lysed and pSTAT6 determined by Fastscan phospho-stat6 (Tyr641) sandwich ELISA kit (cell signaling). Inhibitors were tested at 11 consecutive 5-fold dilutions starting from 10 μM (10 μM-[…]) in duplicate. Calculation of IC50 data, curves and QC analysis were made using Excel tools and GraphPadPrism software. QC criteria parameters: Z′≥0.35, Hill Slope range 0.5 to 5, S:B>2.

JAK3 = biological target: T1, JAK3 (Homo sapiens, UniProt P52333); assay: Biochemical potency on JAK3, TR-FRET (LANCE Ultra kinase assay); details: ATP corresponding to Km; cell-free; read-out: JAK3 inhibitory activity (pIC50) (converted)
T1 sequence (P52333 1-1124): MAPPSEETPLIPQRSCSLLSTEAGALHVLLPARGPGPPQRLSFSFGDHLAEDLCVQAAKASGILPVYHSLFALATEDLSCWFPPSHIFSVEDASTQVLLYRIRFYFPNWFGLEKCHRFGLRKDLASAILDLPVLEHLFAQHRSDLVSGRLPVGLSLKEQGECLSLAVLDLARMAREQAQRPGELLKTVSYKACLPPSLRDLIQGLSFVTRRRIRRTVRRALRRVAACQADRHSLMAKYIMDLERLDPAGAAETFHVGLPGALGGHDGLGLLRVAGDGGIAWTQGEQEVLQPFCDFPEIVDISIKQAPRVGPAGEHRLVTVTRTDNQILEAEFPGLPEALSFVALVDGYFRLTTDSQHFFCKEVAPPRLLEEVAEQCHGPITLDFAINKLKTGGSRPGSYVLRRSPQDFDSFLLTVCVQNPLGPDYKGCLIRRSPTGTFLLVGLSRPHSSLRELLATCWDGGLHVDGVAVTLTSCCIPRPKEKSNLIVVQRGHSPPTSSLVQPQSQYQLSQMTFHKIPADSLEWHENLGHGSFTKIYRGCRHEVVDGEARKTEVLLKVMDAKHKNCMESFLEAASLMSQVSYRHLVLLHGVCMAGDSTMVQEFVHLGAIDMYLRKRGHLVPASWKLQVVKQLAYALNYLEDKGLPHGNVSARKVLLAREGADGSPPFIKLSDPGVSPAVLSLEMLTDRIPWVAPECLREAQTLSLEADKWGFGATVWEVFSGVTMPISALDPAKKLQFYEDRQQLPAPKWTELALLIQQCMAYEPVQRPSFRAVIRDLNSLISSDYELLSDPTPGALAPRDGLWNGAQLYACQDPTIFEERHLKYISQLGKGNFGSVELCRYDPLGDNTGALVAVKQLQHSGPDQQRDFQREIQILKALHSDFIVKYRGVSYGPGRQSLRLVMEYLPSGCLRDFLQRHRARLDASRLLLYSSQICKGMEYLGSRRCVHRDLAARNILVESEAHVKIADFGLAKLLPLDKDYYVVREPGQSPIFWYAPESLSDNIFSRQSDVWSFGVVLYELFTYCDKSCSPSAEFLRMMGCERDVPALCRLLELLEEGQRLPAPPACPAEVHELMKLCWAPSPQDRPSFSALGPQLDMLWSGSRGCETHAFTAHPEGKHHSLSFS
Procedure: as §1, §2, §3

TYK2, sequence (P29597 whole entry, canonical isoform): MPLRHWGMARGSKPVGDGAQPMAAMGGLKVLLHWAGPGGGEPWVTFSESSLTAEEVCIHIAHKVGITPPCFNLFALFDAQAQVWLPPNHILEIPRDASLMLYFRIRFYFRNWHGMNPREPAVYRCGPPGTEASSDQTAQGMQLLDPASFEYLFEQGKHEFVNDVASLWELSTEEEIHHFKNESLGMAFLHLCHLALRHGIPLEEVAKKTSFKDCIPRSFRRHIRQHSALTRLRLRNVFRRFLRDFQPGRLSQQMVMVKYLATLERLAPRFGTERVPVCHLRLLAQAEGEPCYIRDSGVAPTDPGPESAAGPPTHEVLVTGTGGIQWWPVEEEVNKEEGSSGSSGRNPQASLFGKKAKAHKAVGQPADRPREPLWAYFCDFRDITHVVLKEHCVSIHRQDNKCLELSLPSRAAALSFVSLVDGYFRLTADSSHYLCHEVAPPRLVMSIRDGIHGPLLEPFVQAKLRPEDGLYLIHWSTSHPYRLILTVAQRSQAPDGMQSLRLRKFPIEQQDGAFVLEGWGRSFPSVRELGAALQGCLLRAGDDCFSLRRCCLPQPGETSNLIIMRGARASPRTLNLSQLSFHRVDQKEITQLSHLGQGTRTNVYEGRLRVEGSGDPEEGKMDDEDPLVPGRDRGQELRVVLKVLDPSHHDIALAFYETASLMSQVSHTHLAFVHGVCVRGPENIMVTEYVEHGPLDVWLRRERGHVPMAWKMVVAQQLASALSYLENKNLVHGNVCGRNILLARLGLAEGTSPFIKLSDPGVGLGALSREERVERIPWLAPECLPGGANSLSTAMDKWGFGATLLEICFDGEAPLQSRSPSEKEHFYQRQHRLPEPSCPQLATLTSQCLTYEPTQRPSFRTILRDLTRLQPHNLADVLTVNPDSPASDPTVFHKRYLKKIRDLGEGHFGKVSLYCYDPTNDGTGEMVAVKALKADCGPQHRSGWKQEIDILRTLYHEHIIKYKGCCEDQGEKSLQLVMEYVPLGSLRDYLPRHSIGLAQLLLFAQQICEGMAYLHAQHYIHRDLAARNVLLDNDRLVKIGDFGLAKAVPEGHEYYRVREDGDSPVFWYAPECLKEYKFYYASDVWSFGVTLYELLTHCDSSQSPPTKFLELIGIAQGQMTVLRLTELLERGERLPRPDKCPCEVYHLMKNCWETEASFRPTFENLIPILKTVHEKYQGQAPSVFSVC

IC50 (TYK2): 5.01 to 50.1 nM | IC50 (JAK2): ≤ 5.01 nM | IC50 (JAK1): ≤ 5.01 nM | IC50 (JAK3): ≤ 5.01 nM
Structure (SMILES): COC(=O)[C@@H]1CCN(CCNC(=O)c2nn(-c3cc4c(cc3OC)NCCO4)c3cc(-c4cnn5cccnc45)ncc23)C1 [Example 29, methyl (R)-1-(2-(1-(6-methoxy-3,4-dihydro-2H-benzo[b][1,4]oxazin-7-yl)-6-(pyrazolo[1,5-a]pyrimidin-3-yl)-1H-pyrazolo[4,3-c]pyridine-3-carboxamido)ethyl)pyrrolidine-3-carboxylate]
IC50 [1]: ≤ 5.01 nM | Fold difference parent vs predicted acid metabolite [1]: kkk (200>ratio≥100)

IC50 (TYK2): 5.01 to 50.1 nM | IC50 (JAK2): ≤ 5.01 nM | IC50 (JAK1): ≤ 5.01 nM | IC50 (JAK3): ≤ 5.01 nM
Structure (SMILES): CCOC(=O)[C@H]1CCN(CCNC(=O)c2nn(-c3cc4c(cc3OC)NCCO4)c3cc(-c4cnn5cccnc45)ncc23)C1 [Example 44, ethyl (S)-1-(2-(1-(6-methoxy-3,4-dihydro-2H-benzo[b][1,4]oxazin-7-yl)-6-(pyrazolo[1,5-a]pyrimidin-3-yl)-1H-pyrazolo[4,3-c]pyridine-3-carboxamido)ethyl)pyrrolidine-3-carboxylate]
IC50 [1]: 5.01 to 50.1 nM | Fold difference parent vs predicted acid metabolite [1]: kkkk (ratio≥200)

IC50 (TYK2): 5.01 to 50.1 nM | IC50 (JAK2): ≤ 5.01 nM | IC50 (JAK1): ≤ 5.01 nM | IC50 (JAK3): ≤ 5.01 nM
Structure (SMILES): CCOC(=O)CC1CCN(CCNC(=O)c2nn(-c3cc4c(cc3OC)NCCO4)c3cc(-c4cnn5cccnc45)ncc23)CC1 [Example 35, ethyl 2-(1-(2-(1-(6-methoxy-3,4-dihydro-2H-benzo[b][1,4]oxazin-7-yl)-6-(pyrazolo[1,5-a]pyrimidin-3-yl)-1H-pyrazolo[4,3-c]pyridine-3-carboxamido)ethyl)piperidin-4-yl)acetate]
IC50 [1]: ≤ 5.01 nM | Fold difference parent vs predicted acid metabolite [1]: kkkk (ratio≥200)

Structure (SMILES): COc1cc2c(cc1-n1nc(NC(=O)O[C@H]3C[C@@H](C(=O)O)C3)c3cnc(-c4cnn5cccnc45)cc31)OCCN2 [Example A7, reference compound]
pIC50 (BEAS) predicted acid metabolite [1]: § (pIC50<6.3)

Structure (SMILES): COc1cc2c(cc1-n1nc(C(=O)NCCN3CCC(CC(=O)O)CC3)c3cnc(-c4cnn5cccnc45)cc31)OCCN2 [Example A12, 2-(1-(2-(1-(6-methoxy-3,4-dihydro-2H-benzo[b][1,4]oxazin-7-yl)-6-(pyrazolo[1,5-a]pyrimidin-3-yl)-1H-pyrazolo[4,3-c]pyridine-3-carboxamido)ethyl)piperidin-4-yl)acetic acid, reference compound]
pIC50 (BEAS) predicted acid metabolite [1]: § (pIC50<6.3)

Structure (SMILES): COc1cc2c(cc1-n1nc(C(=O)NCCN3CCC(C(=O)O)CC3)c3cnc(-c4cnn5cccnc45)cc31)SCCN2 [Example A2, reference compound]
pIC50 (BEAS) predicted acid metabolite [1]: §§ (7.3>pIC50≥6.3)

Structure (SMILES): COc1cc2c(cc1-n1nc(C(=O)NCCN3CCC(C(=O)O)CC3)c3cnc(-c4cnn5cccnc45)cc31)OCCN2 [Example A1, 1-(2-(1-(6-methoxy-3,4-dihydro-2H-benzo[b][1,4]oxazin-7-yl)-6-(pyrazolo[1,5-a]pyrimidin-3-yl)-1H-pyrazolo[4,3-c]pyridine-3-carboxamido)ethyl)piperidine-4-carboxylic acid, reference compound]
pIC50 (BEAS) predicted acid metabolite [1]: § (pIC50<6.3)

Structure (SMILES): COc1cc2c(cc1-n1nc(C(=O)NCCN3CC[C@@H](C(=O)O)C3)c3cnc(-c4cnn5cccnc45)cc31)OCCN2 [Example A4, reference compound]
pIC50 (BEAS) predicted acid metabolite [1]: § (pIC50<6.3)

Structure (SMILES): COc1cc2c(cc1-n1nc(NC(=O)OCC(=O)O)c3cnc(-c4cnn5cccnc45)cc31)SCCN2 [Example A10, 2-(((1-(6-Methoxy-3,4-dihydro-2H-benzo[b][1,4]thiazin-7-yl)-6-(pyrazolo[1,5-a]pyrimidin-3-yl)-1H-pyrazolo[4,3-c]pyridin-3-yl)carbamoyl)oxy)acetic acid, reference compound]
pIC50 (BEAS) predicted acid metabolite [1]: § (pIC50<6.3)

Structure (SMILES): COc1cc2c(cc1-n1nc(C(=O)NCCN3CCC(C(=O)O)CC3)c3cnc(Nc4ncc[nH]c4=O)cc31)OCCN2 [Example A11, reference compound]
pIC50 (BEAS) predicted acid metabolite [1]: § (pIC50<6.3)

Structure (SMILES): COc1cc2c(cc1-n1nc(NC(=O)OCC(=O)O)c3cnc(-c4cnn5cccnc45)cc31)OCCN2 [Example A6, reference compound]
pIC50 (BEAS) predicted acid metabolite [1]: § (pIC50<6.3)

Structure (SMILES): COc1cc2c(cc1-n1nc(C(=O)O)c3cnc(-c4cnn5cccnc45)cc31)OCCN2 [Example A9, 1-(6-Methoxy-3,4-dihydro-2H-benzo[b][1,4]oxazin-7-yl)-6-(pyrazolo[1,5-a]pyrimidin-3-yl)-1H-pyrazolo[4,3-c]pyridine-3-carboxylic acid, reference compound]
pIC50 (BEAS) predicted acid metabolite [1]: § (pIC50<6.3)

Structure (SMILES): COc1cc2c(cc1-n1nc(NC(=O)OCCN3CCC(C(=O)O)CC3)c3cnc(-c4cnn5cccnc45)cc31)OCCN2 [Example A8, reference compound]
pIC50 (BEAS) predicted acid metabolite [1]: § (pIC50<6.3)

Structure (SMILES): COc1cc2c(cc1-n1nc(NC(=O)OCCN3CCC(C(=O)O)CC3)c3cnc(-c4cnn5cccnc45)cc31)SCCN2 [Example A5, reference compound]
pIC50 (BEAS) predicted acid metabolite [1]: §§ (7.3>pIC50≥6.3)

Structure (SMILES): COc1cc2c(cc1-n1nc(C(=O)NCCN3CC[C@H](C(=O)O)C3)c3cnc(-c4cnn5cccnc45)cc31)OCCN2 [Example A3, reference compound]
pIC50 (BEAS) predicted acid metabolite [1]: § (pIC50<6.3)
